The nature of series [1]: Spectrum study of dye degradation under light irradiation (absorbance, fluorescence). Format: physicochemical. The conditions noted are these: for decomposition of dye upon light irradiation: 530 nm, in ICG/BC NPs and IR820/BC NPs (FIGS. 2K-2M). How it is done: At different time points, the absorbance and fluorescence were measured by spectrometers without any dilution.

A short description of series [2]: Singlet oxygen detection in solution (SOSG assay). Format: physicochemical. Particulars: 530 nm, 50 mW/cm^2, 0-1 min; equivalent concentration of BC. The method, then: Singlet oxygen generation was measured both in solutions and cells using SOSG and DCFH-DA as indicator, respectively. […] Besides, the intracellular ^1O2 generation was detected by CLSM. […] Subsequently, the cells were washed with PBS for 3 times and incubated with DCFH-DA (10 μM) for 30 min. The cells were irradiated by LED (530 nm, 50 mW/cm^2, 5 min) for the light irradiation groups. The intracellular fluorescence was observed by CLSM imaging to evaluate the ^1O2 generation.

Series [3] can be described thus: In vivo biodistribution by fluorescence imaging in HCT116 tumor-bearing mice. Set-up: species or system BALB/c nude mice. Particulars: i.v., imaging 1-24 h post injection.
The nature of series [4]: Loading capacity and encapsulation efficiency of IR783 and BC in NPs by HPLC. It is filed as physicochemical. The method, then:
BODIPY-Cb was dissolved in DMSO (20 μL, 10 mg/mL), and added dropwise to a 300 μL aqueous solution containing IR783 (400 μg/mL) under vigorous vortex. The solution was centrifuged once (2000×g, 10 min, 4° C.) to remove the precipitate. Then the supernatant was centrifuged twice (30,000×g, 30 min, 4° C.), and the resulting precipitate was re-suspended in 300 μL of sterile PBS. Other prodrug/dye NPs were prepared following the same procedure as above. The contents of IR783 and BC in the resulted nanoparticle solution were determined by HPLC analysis. Their loading capacity and encapsulation efficiency were calculated as follow: […]

For series [5], the system named is human umbilical vein endothelial cells (HUVECs). In words: Cytotoxicity in dark, biocompatibility evaluation. Format: cell-based. Particulars: 24 h, up to 100 μM. The method, then:
(§1) HCT116 cells were cultured in RPMI-1640 (Gibco) supplemented with 10% FBS (Gibco) and 100 units/mL antibiotics (Penicillin-Streptomycin, Gibco) at 37° C. in a 5% CO2 humidified atmosphere. HUVECs cells were cultured in DMEM (Gibco) supplemented with 10% FBS (Gibco) and 100 units/mL antibiotics (Penicillin-Streptomycin, Gibco) at 37° C. in a 5% CO2 humidified atmosphere.
(§2) The cell viability was evaluated by MTT assay. HCT116 cells were incubated in 96-well microliter plates for 24 h. Then, gradient concentrations of BC prodrug or IR783/BC NPs in RPMI 1640 culture medium were added to the cells. After 6 h incubation, the residual BC or IR783/BC NPs were removed by fresh RPMI 1640 culture medium (100 μL). Then, the cells were irradiated by 530 nm LED light (50 mW/cm^2, 5 min) or incubated at room temperature without light. After another incubation for 24 h, MTT solution (10 μL, 10 mg/mL) was added to the cells to cultivate for 3 h. Next, the cell culture medium was discarded, and DMSO (100 μL) was then added. The absorbance was measured by a multi-mode microplate reader at 490 nm, 570 nm and 630 nm.

The subject of series [6] is HCT116 cells. In words: Anti-proliferation effect by MTT assay. It is filed as cell-based, human. The method, then:
as §1, §2
On the technique in general: Formazan colour is commonly taken as a measure of viable cells.

For series [7] the following is noted: refs [17, 39]; cited from earlier work.
Series [8] concerns HCT116 cells. Nature of the series: Apoptosis study (Annexin-V FITC/PI, flow cytometry). Format: cell-based, human. The conditions noted are these: 20 μM, with or without light irradiation. How it is done:
For apoptosis study, HCT116 cells were seeded in 6-well plates at a density of 50000 cells/well and treated with free Cb or IR783/BC NPs at the equivalent concentration of Cb at 5 μM and 20 μM for 6 h. Then the cells were washed by PBS. The cells in the irradiation group were irradiated by light for 5 min. After 24-h incubation, cells were washed by PBS, collected by trypsin digestion, and stained with Annexin-V/FITC apoptosis kit. ACEA NovoCyte Quanteon flow cytometer (ACEA Biosciences, San Diego, CA, USA) was used for cell study.
(In flow cytometry, cells or beads pass a laser one at a time.)

Another series has as its system HCT116 xenografts. In words: In vivo antitumor efficacy. On the set-up: species or system BALB/c nude mice. The conditions noted are these: without light irradiation, i.v. Day 0, 4, 8, 12. The method, then: BALB/c nude mice were purchased from SLAC Experiment Animal Co., Ltd. (Shanghai, China) and kept in the Laboratory Animal Center of Fudan University (Shanghai, China). For the subcutaneous tumor model, male BALB/c nude mice were injected with 2×10^7 HCT116 cells subcutaneously. The mice were then further kept in SPF condition for 5-7 days until tumors were observed.
The antitumor efficacy of IR783/BC NPs in the presence or absence of light was investigated in HCT116 tumor mouse model. The mice were randomly divided into six groups when the tumor size reached about 200 mm^3. For different groups, mice were treated with different formulations via i.v. injection at Day 0, 4, 8, and 12: (1) PBS; (2) PBS+hv; (3) IR783+hv; (4) Cb; (5) IR783/BC NPs; (6) IR783/BC NPs+hv. For the irradiation group, light irradiations (100 mW/cm^2, 10 min) were performed 24 h post injection. The dose for each treatment was set as 5 mg/kg. Tumor sizes and body weights were measured in a 2-day interval, and the tumor volume was calculated as V=½×width^2×length. At the end of the experiment (Day 14), all mice were euthanized, and the tumors and major organs were collected and sliced for H&E staining and immunohistochemical analysis.

Series [9] deals with HCT116 cells. In words: Live/dead staining (Calcein-AM/PI). Particulars: BC equivalent 50 μM; groups with or without 530 nm irradiation as stated. It is filed as cell-based, human. How it is done: For live/dead staining, HCT116 cells were seeded in confocal dishes at a density of 10000 cells/well and treated with PBS, free IR783, free BC and IR783/BC NPs with an equivalent concentration of BC at 50 μM. For the irradiation groups, cells were washed by PBS after 6 h and irradiated by 530 nm LED for 5 min. Calcein-AM and PI were then added into the medium and the cells were observed by CLSM without any treatment.

Read-outs that look alike come from different tables or passages of the source.

As to `CC1(C)C(/C=C/C=C/C=C/C=C2\N(CCCCS(=O)(=O)O)c3ccc4ccccc4c3C2(C)C)=[N+](CCCCS(=O)(=O)[O-])c2ccc3ccccc3c21` [ICG, Indocyanine green], the “decomposition of dye upon light irradiation” value in series [1] is “decomposed”.
Consider `CC1(C)C(=CC=C2CCCC(C=CC3=[N+](CCCCS(=O)(=O)[O-])c4ccccc4C3(C)C)=C2Cl)N(CCCCS(=O)(=O)[O-])c2ccccc21.[Na+]` [IR783], for which the “^1O2 generation (SOSG fluorescence)” value in series [2] is “much lower efficiency”. The “whole-body fluorescence retention after systemic administration” value in [3] is reported as “fleetly eliminated”. In addition, the “NIR fluorescence emission pattern upon light irradiation” value in series [1] (530 nm light irradiation) was “did not see similar phenomena”. Moreover, in [4], the “Encapsulation Efficiency” value came out at 0.02% and the “Loading Capacity” value was determined as 1.15%. Further, the cytotoxicity in dark result in series [5] is reported as “Negligible cytotoxicity”.
Regarding `CC1(C)C(=CC=C2CCCC(C=CC3=[N+](CCCCS(=O)(=O)[O-])c4ccc5ccccc5c4C3(C)C)=C2Cl)N(CCCCS(=O)(=O)[O-])c2ccc3ccccc3c21.[Na+]` [IR820], the “decomposition of dye upon light irradiation” value in series [1] was “decomposed”.
For the compound `O=C(O)CCCc1ccc(N(CCCl)CCCl)cc1` [chlorambucil, Chlorambucil], in the series on HCT116 cells [6] (with/without light irradiation (FIG. 8B)), the “cytotoxicity of free drug” value is “relatively low”. In series [7], the “hydrolysis in aqueous solution” value is recorded as “rapidly hydrolyze”. The apoptosis result in the series with HCT116 cells [8] is “about 5%”. Moreover, in the series with HCT116 xenografts, the anti-tumor efficacy entry is given as “undermined”.
The term IC50 denotes the concentration that inhibits the measured activity by half. In the case of boron-dipyrromethene-chlorambucil [BC], the 50% inhibitory concentration (IC50) in the series on HCT116 cells [6] (530 nm light irradiation, on BC prodrug basis, read-out: IC50 (cell viability)) amounted to 9.24 µM. Moreover, in series [4] (listed as BC prodrug), the “Encapsulation Efficiency” value was found to be 84.37% and the “Loading Capacity” value is reported as 98.85%. Moreover, in series [4] (listed as BODIPY-Cb), the “Encapsulation Efficiency” value is 84.37% and the “Loading Capacity” value is recorded as 98.85%. The “cell death in live-dead staining” value with HCT116 cells [9] was “dead cells presenting red fluorescence were observed”.

Source of the values: patent US20240415985A1, “PHOTOCLEAVABLE PRODRUG-BASED NANOMEDICINE FOR IN-SITU MONITORABLE CANCER THERAPY” (The University of Hong Kong, priority 2021, published 2024).
